Each structure is given as a SMILES string. pIC50, pKi: −log10 of the molar value.

The target of one assay is T1, Glutathione peroxidase 1 (Homo sapiens, UniProt P07203).
T1 sequence (P07203 whole entry): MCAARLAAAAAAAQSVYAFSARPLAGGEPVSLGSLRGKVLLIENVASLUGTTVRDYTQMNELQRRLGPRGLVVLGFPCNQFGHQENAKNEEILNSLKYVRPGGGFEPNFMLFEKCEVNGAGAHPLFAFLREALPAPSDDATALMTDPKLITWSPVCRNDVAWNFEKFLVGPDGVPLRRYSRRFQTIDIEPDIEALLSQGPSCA
Put plainly: Glutathione Peroxidase Activity Assay. Conditions: pH 7. As for the experimental part:
Glutathione peroxidase was assayed in a l-ml system containing 0.1 M potassium phosphate buffer, pH 7.0, 0.2 mM NADPH, 1 i.u. glutathione reductase, 4 mM GSH,4 mM EDTA, 4 mM sodium azide. The reaction mixture was incubated at 37°C for 10 min after which 10 μl of 10 mM t-butyl hydroperoxide were added to start the reaction. No t-butyl hydroperoxide was added to the blank cuvette. The rate of reaction was measured at 37°C by following the decrease in the absorbance at 340 nm using a spectrophotometer.

For assay [1], the target named is T2, Microsomal glutathione S-transferase 1 (Homo sapiens, UniProt P10620).
T2 sequence (P10620 whole entry): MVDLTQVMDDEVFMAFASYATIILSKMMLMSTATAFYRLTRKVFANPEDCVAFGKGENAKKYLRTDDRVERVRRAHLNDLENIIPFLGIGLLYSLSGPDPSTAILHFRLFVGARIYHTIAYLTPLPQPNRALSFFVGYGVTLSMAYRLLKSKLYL
In words: Glutathione S-transferase Activity Assay. To be noted: pH 6.5. As for the experimental part: Enzymatic activity was determined spectrophotometrically by measuring the conjugation of CDNB with GSH. The 1 ml assay mixture contained 0.5 mM CDNB, 1 mMGSH, and 100 mM potassium phosphate buffer, pH 6.5. The rate of increase in absorbance at 340 nm was measured for 5 mm at 37°C against a blank containing thereaction mixture without enzyme.

Assay [2] addresses T3, Glutathione reductase, mitochondrial (Homo sapiens, UniProt P00390).
T3 sequence (P00390 whole entry): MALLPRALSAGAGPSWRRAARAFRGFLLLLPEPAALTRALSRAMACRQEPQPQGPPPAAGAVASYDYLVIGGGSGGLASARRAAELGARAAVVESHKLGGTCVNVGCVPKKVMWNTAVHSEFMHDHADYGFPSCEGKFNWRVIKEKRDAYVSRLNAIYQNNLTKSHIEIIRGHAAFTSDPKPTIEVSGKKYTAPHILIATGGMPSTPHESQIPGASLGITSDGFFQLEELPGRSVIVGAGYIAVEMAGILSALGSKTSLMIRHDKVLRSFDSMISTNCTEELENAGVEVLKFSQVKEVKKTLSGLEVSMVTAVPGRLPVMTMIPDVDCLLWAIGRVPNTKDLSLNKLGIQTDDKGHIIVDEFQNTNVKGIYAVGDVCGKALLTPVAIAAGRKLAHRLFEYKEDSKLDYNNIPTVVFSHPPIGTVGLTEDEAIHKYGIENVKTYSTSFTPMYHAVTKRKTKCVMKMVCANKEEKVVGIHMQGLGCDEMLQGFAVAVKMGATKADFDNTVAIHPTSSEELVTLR
Put plainly: Glutathione Reductase Activity Assay. Conditions: pH 8. The method, then: Enzymatic activity was measured by Beutler's method with a Shimadzu Spectrophotometer UV-(1208), at 25°C. The assay system contained 100 mM Tris-HCl buffer pH 8.0, including 0.5 mM EDTA, 3.3 mM GSSG and 0.1 mM NADPH. One enzyme unit is defined as the oxidation of 1 μmol NADPH per min under the assay condition at 25°C.

On to `CO/N=C(\C(=O)N[C@@H]1C(=O)N2C(C(=O)O)=C(COC(N)=O)CS[C@H]12)c1ccco1` [640/359], for which the pIC50 against Glutathione peroxidase 1 is 4.35; in assay [1], 4.25; in assay [2], 4.73. Besides, the pKi at Glutathione peroxidase 1 was 4.49; in assay [1], 4.49; in assay [2], 4.98.
`CO/N=C(\C(=O)N[C@@H]1C(=O)N2C(C(=O)O)=C(CSc3nc(=O)c(=O)[nH]n3C)CS[C@H]12)c1csc(N)n1` [(6R,7R)-7-{2-(2-Amino-thiazol-4-yl)-2-[(Z)-methoxyimino]-acetylamino}-3-(2-methyl-5,6-dioxo-1,2,5,6-tetrahydro-[1,2,4]triazin-3-ylsulfanylmethyl)-8-oxo-5-thia-1-aza-bicyclo[4.2.0]oct-2-ene-2-carboxylic acid]: the pIC50 against Glutathione peroxidase 1 was 4.31; in assay [1], 4.21; in assay [2], 4.67. In addition, the pKi on Glutathione peroxidase 1 was 4.47; in assay [1], 4.45; in assay [2], 4.76.
On to `CCN1CCN(C(=O)N[C@@H](C(=O)N[C@@H]2C(=O)N3C(C(=O)O)=C(CSc4nnnn4C)CS[C@H]23)c2ccc(O)cc2)C(=O)C1=O` [CEFOPERAZONE], for which the values for the pIC50 (against Glutathione peroxidase 1; in assay [1]; in assay [2]) were 3.50, 3.32 and 4.32, respectively. Also, the negative logarithm of the Ki (pKi) at Glutathione peroxidase 1 is 3.61; in assay [1], 3.57; in assay [2], 4.54.
`CO/N=C(\C(=O)N[C@@H]1C(=O)N2C(C(=O)O)=CCS[C@H]12)c1csc(N)n1` [Ceftizoxime]: the pIC50 at Glutathione peroxidase 1 was 3.73; in assay [1], 3.56; in assay [2], 4.40. The values for the pKi (on Glutathione peroxidase 1; in assay [1]; in assay [2]) were 3.92, 3.78 and 4.64, respectively.

What is called pIC50 is −log10 of the IC50, conventionally taken in molar units. A lower pIC50 goes with a large IC50. A word on the pKi: it is the Ki on a negative log10 scale, so that one unit is a factor of ten. Lower therefore signals a high Ki.

Source of the values: BindingDB's records for doi:10.3109/14756366.2012.688042 (Ondokuz Mayis University, 2013).
